Test results taken from patent publication US11193004B2, “Phosphoric ester preparations with reduced hygroscopicity” (LANXESS Deutschland GmbH, priority 2013, dated 2021).

Assays:
[1] = Solubility in water of phosphoric esters b)
[2] = physchem; details: 25 °C, water

Isopropylated triphenyl phosphate [IPP]
Solubility in water at 25° C. [1]: 0.00033 mg/mL

CCOP(=O)(OCC)OCC [TEP, Triethyl phosphate]
solubility [2]: > 3 mg/mL | Solubility in water at 25° C. [1]: miscible

Diphenyl cresyl phosphate [DPC]
Solubility in water at 25° C. [1]: 0.0026 mg/mL

O=P(OC(CCl)CCl)(OC(CCl)CCl)OC(CCl)CCl [TDCP, Tris(2,3-dichloroisopropyl) phosphate]
Solubility in water at 25° C. [1]: 0.10 mg/mL
